Experimental data reported in patent publication US8865864B2, “Mutant epidermal growth factor polypeptides with improved biological activity and methods of their making and use” (The Board of Trustees of the Leland Stanford Junior …, priority 2011, dated 2014).
Values belong to the substance of their own block, whether it stands above or below them.

How the values were obtained:
BJ-5ta cells = assay: Cell proliferation assay ([3H]TdR incorporation); type: cell-based, human; conditions: for level of cell proliferation ([3H]TdR incorporation): 1 nM dose, CFPS-produced protein
Description: BJ-5ta cells, human immortalized foreskin fibroblast cells that express human EGFR (American Type Culture Collection), were plated in 96-well plates at a density of 2500 cells per well in 100 μl of full medium [Dulbecco's modified Eagle's medium (DMEM)] supplemented with 1% penicillin/streptomycin (Pen/Strep), 1% I-glutamine, 1% sodium pyruvate, 20% M199, and 10% fetal bovine serum. All cell culture reagents were from invitrogen. After 24 h, cells were serum-starved for 48 h in serum-free medium (DMEM supplemented with 1% Pen/Strep, 1% I-glutamine, 1% sodium pyruvate, and 20% M199). The medium was then replaced with 100 μl of serum-free medium containing the indicated concentrations of treatment protein.
When indicated, the standard serum-free medium used during protein treatment was replaced with advanced media (Advanced DMEM supplemented with 1% Pen/Strep, 1% I-glutamine, 1% sodium pyruvate, and 20% M199) or supplemented with human recombinant insulin. […]
[3H]TdR incorporation was measured 24 h later by freezing the plates at −80° C. overnight, thawing the plates at room temperature, harvesting the cells onto glass fiber filter mats (Perkin Elmer) with a Mach IIIM Harvester (Tomtec), and performing scintillation counting with a Wallac MicroBeta Counter (Perkin Elmer).
BJ5ta cells were plated in 96-well plates at densities of 2,500 cells/well (BJ5ta), in 100 μl of complete medium. […] 3H-TdR incorporation was measured 24 h later by freezing the cells overnight at −80° C. and harvesting the cells onto glass fiber filtermats (Perkin Elmer) using a Mach IIIM harvester (Tomtec). […]
BJ-5ta cells were plated in 96-well plates at a density of 5,000 cells/well and 2,500 cells/well, respectively, in 100 μl of medium. […] 3H-TdR incorporation was measured 24 h later by harvesting the cells onto glass fiber filtermats (Perkin Elmer, Waltham, Mass.) using a Mach IIIM harvester (Tomtec, Hamden, Conn.) and performing scintillation counting with a Wallac MicroBeta (Perkin Elmer, Waltham, Mass.).

BJ5ta cells = assay: Chemotactic cell migration assay, BJ-5ta; type: cell-based, human; conditions: 0.3 nM, 3-hour exposure
Description: Non-migrated cells were removed by wiping the upper side of the membrane with a cotton swab. The transwells were washed three times with PBS, fixed with methanol, and stained with modified Giemsa. Pictures were taken of the migrated stained cells in nine random high-powered fields (20×) using light microscopy, and the number of migrated cells was counted.
Costar transwells (Corning 3422, 8.0 μm pores, 6.5 mm diameter) were coated on both sides with 10 μg/ml bovine fibronectin (Sigma F1141-2MG, 1 mg/ml) overnight at 4° C. in buffer (50 mM Tris-HCl, 500 mM NaCl, pH 7.5), Transwells were then washed 3 times with PBS, and then blocked with PBS with 1% BSA (PBS/BSA) at 37° C. for 1 hr prior to usage. […] Non-migrated cells were removed by wiping the upper side of the membrane with Q-tips. […] Pictures were taken of the migrated-stained cells in nine random high-powered fields (20×) using light microscopy, and the number of migrated cells was counted using ImageJ software.
Costar transwells (8.0 μm pores, 6.5 mm diameter) were coated on both sides with bovine fibronectin (10 μg/ml) overnight at 4° C. washed 3 times with PBS, and then blocked with 1% bovine serum albumin (BSA) in PBS at 37° C. for 1 h prior to usage. […] Pictures were taken of the migrated-stained cells in nine random high powered fields (20×) using light microscopy, and the number of migrated cells were counted.

NR6WT cells = assay: Chemotactic cell migration assay, NR6WT; type: cell-based, murine; conditions: 0.3 nM, 3-hour exposure
Description: (§1) Costar transwells (8.0 μm pores, 6.5 mm diameter) were coated on both sides with bovine fibronectin (10 μg/ml) overnight at 4° C. washed 3 times with PBS, and then blocked with 1% bovine serum albumin (BSA) in PBS at 37° C. for 1 h prior to usage. […] Non-migrated cells were removed by wiping the upper side of the membrane with a cotton swab. The transwells were washed three times with PBS, fixed with methanol, and stained with modified Giemsa. Pictures were taken of the migrated-stained cells in nine random high powered fields (20×) using light microscopy, and the number of migrated cells were counted.

BALB/3T3 cells = assay: Chemotactic cell migration assay, BALB/3T3; type: cell-based; conditions: 0.3 nM, 3-hour exposure
Description: as §1

[1] = tested on: ErbB receptors expressed on the surface of CHO cells; assay: EGF ligand specificity on transfected CHO cells; type: binding; conditions: 25 nM, 10 min, CHO cells individually expressing ErbB receptors
Description: The binding specificities of wild-type and mutant EGF were determined by flow cytometry using CHO cells transfected with EGFR or other ErbB receptor family members. […] Cells were labeled with a FITC-conjugated antibody directed against the N-terminal FLAG epitope tag on EGF and analyzed by flow cytometry.

hEGFR and mEGFR = assay: SPR pH titration binding (Example 3); design: species or system human and murine; conditions: 200 nM ligand, pH 5.0 to 8.5
Description: pH titration binding experiments were performed at 25° C. in degassed buffer at various pHs ranging from 5.0 to 8.5. Wild-type and mutant EGF were diluted to 200 nM in pH buffer and flowed over the surface of the hEGFR sensorchip at a flow rate of 20 μL/min for 2 min. The hEGFR and mEGFR surfaces were regenerated as noted above. pH titration binding experiments were performed in triplicate at each pH over flow cells one and two for bath the hEGFR and mEGFR surfaces. The steady-state binding response was measured for each growth factor at the association phase plateau of the sensorgram.

Substance: L47R: EGF point mutant, leucine 47 substituted with arginine, used in mock libraries (NSDSECPLSHDGYCLHDGVCMYIEALDKYACNCVVGYIGERCQYRDRKWWELR; not fully specified; Epidermal growth factor; UniProt P01133 971-1023, looked up, variant L47R)
level of cell proliferation ([3H]TdR incorporation) (BJ-5ta cells): low

Substance: L47D: EGF point mutant, leucine 47 substituted with aspartic acid, used in mock libraries (NSDSECPLSHDGYCLHDGVCMYIEALDKYACNCVVGYIGERCQYRDDKWWELR; not fully specified; Epidermal growth factor; UniProt P01133 971-1023, looked up, variant L47D)
level of cell proliferation ([3H]TdR incorporation) (BJ-5ta cells): intermediate

pH sensitivity of steady-state binding to EGFR (hEGFR and mEGFR): much less so
Substance: m123: high-affinity mutant EGF SEQ ID NO:17: NSYSECPPSYDGYCLHDGVCRYIEALDSYACNCVVGYAGERCQYRDLRWWGRR
cell proliferation compared to wild-type EGF (BJ-5ta cells; varying concentrations, 72 hours): no significant changes in the levels of cell proliferation | chemotactic migration compared to wild-type EGF, BJ-5ta (BJ5ta cells): increased chemotactic migration | chemotactic migration compared to wild-type EGF, NR6WT (NR6WT cells): increased chemotactic migration | chemotactic migration compared to wild-type EGF, BALB/3T3 (BALB/3T3 cells): increased chemotactic migration | ErbB binding specificity [1]: bound specifically to EGFR but not to other ErbB receptor family members
